This assay concerns patients with cold, cough and other symptoms of respiratory infection (Upper Respiratory Infection, URI/cold).

Like-named read-outs stand apart in the source and are kept apart here.

Description: Representative Samples of Clinical Cases of Patients of Varying Ages Treated by a Doctor, with Non or Minimally Sedating Antihistamines for Cold, Cough and Other Symptoms of Respiratory Infection:

Turning to `O=C(O)COCCN1CCN(C(c2ccccc2)c2ccc(Cl)cc2)CC1` (stereo not drawn) [Cetirizine], the “relief of URI symptoms” value is, setting by setting: (Case 1: URI/cold, Cetirizine 10 mg QHS with Triamcinolone Nasal Spray) “rapid relief of URI symptoms”; (Case 2: same patient as Case 1, URI/cold and Bronchitis, Cetirizine 10 mg QHS, already taking Triamcinolone Nasal Spray) “rapid relief of URI symptoms”; (Case 3: same patient as Case 1, URI/cold, Cetirizine 10 mg QHS) “rapid relief of URI symptoms”; (Case 8: URI/cold/Allergic Rhinitis, Cetirizine 10 mg QHS) “rapid relief of URI symptoms”; (Case 14: URI, Cetirizine Liquid 2.5 mg QHS) “rapid relief of URI symptoms”. Moreover, the “relief of URI and Bronchitis symptoms” value (Case 9: same patient as Case 8, URI/cold/Bronchitis, Allergic Rhinitis, Cetirizine 10 mg QHS and Amoxicillin Clavulanate) was “rapid relief of URI and Bronchitis symptoms”.
Turning to `CC(C)(C(=O)O)c1ccc(C(O)CCCN2CCC(C(O)(c3ccccc3)c3ccccc3)CC2)cc1` (stereo not drawn) [Fexofenadine], the “relief of URI symptoms” value reads like this: (Case 4: URI/cold, Fexofenadine 180 mg QD with Triamcinolone Nasal Spray) “rapid relief of URI symptoms”; (Case 12: same patient as Case 11, Allergic Rhinitis/URI/cold, Fexofenadine 60 mg BID) “rapid relief of URI symptoms”; (Case 13: same patient as Cases 11 and 12, URI/cold, Fexofenadine 60 mg BID) “rapid relief of URI symptoms”. The “relief of Pharyngitis and Bronchitis symptoms” value (Case 10: Pharyngitis, Asthma, COPD, Fexofenadine 180 mg QD, Amoxicillin Clavulanate, Prednisone) is “rapid relief of Pharyngitis and Bronchitis symptoms”. The “relief of URI and Sinusitis symptoms” value (Case 11: URI/cold, rule out Sinusitis, Fexofenadine 60 mg BID, Amoxicillin Clavulanate) is “rapid relief of URI and Sinusitis symptoms”.
For the compound `O=C(O)COCCN1CCN([C@H](c2ccccc2)c2ccc(Cl)cc2)CC1` [Levocetirizine], the “relief of URI symptoms” value runs as follows: (Case 5: child, URI/cold, Levocetirizine 2.5 mg at bedtime, Carbinoxamine with Dextromethorphan discontinued) “rapid relief of URI symptoms”; (Case 7: same patient as Case 6, Pharyngitis, URI/cold, Levocetirizine 2.5 mg at bedtime, using Mometasone Nasal Spray, asthma inhaler, Montelukast) “rapid relief of URI symptoms”. Further, the relief of cough result (Case 6: same patient as Case 5, URI/cold, resumed Levocetirizine 2.5 mg at bedtime) is recorded as “rapid relief of cough”.
Consider `CCOC(=O)N1CCC(=C2c3ccc(Cl)cc3CCc3cccnc32)CC1` [Loratidine], for which the “relief of URI symptoms” value (Case 15: URI/Pharyngitis, Loratidine 10 mg QD, Azithromycin prescribed by Pediatrician) is “rapid relief of URI symptoms”.

(Values after patent publication US10046052B2, “Method and formulation for cold treatment in adults and children with increased safety” (priority 2010, dated 2018).)
